Assay results published in patent publication US20020111274A1, “1-alkyl-3-[1-(substituted phenyl) benzotriazol-6-yl] uracils” (BASF Aktiengesellschaft, priority 2000, published 2002).

Columns and labels:
Parameters in all cases: scale not given here
ABUTH Velvetleaf [1] = assay: Postemergence herbicidal evaluation, ABUTH; type: in vivo, Abutilon theophrasti, Medic.
Summary of the method: (§1)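 Two-week-old seedlings sprayed postemergence with compound in 80/20 acetone/water plus 1.0% methylated seed oil, at about 0.006–0.400 kg/ha, through a nozzle at 40 psi. Plants kept under greenhouse conditions and visually rated about two–three weeks after treatment; ratings from repeat tests averaged.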

AMBEL Ragweed, Common [2] = assay: Postemergence herbicidal evaluation, AMBEL; type: in vivo, Ambrosia artemisifolia, L.
Summary of the method: as §1

CASOB Sicklepod [3] = assay: Postemergence herbicidal evaluation, CASOB; type: in vivo, Cassia obtusifolia, L.
Summary of the method: as §1

[4] = system: CHEAL Lambsquarters, Common; assay: Postemergence herbicidal evaluation, CHEAL; type: in vivo, Chenopodium album, L.
Summary of the method: as §1

ECHOG Barnyardgrass [5] = assay: Postemergence herbicidal evaluation, ECHOG; type: in vivo, Echinochloa crus-galli, (L.) Beau
Summary of the method: as §1

GALAP Galium [6] = assay: Postemergence herbicidal evaluation, GALAP; type: in vivo, Galium aparine
Summary of the method: as §1

[7] = system: IPOHE Morningglory, Ivyleaf; assay: Postemergence herbicidal evaluation, IPOHE; type: in vivo, Ipomoea hederacea, (L.) Jacq.
Summary of the method: as §1

SETVI Foxtail, Green [8] = assay: Postemergence herbicidal evaluation, SETVI; type: in vivo, Setaria viridis, (L.) Beau
Summary of the method: as §1

GLXMAW Soybean, Williams [9] = assay: Postemergence herbicidal evaluation, GLXMAW; type: in vivo, Glycine max, (L.) Merr. cv Williams
Summary of the method: as §1

[10] = system: TRZAWR Wheat, Winter, cv Riband; assay: Postemergence herbicidal evaluation, TRZAWR; type: in vivo, Triticum aestivum
Summary of the method: as §1

ORYSAT Rice, Tebonnet [11] = assay: Postemergence herbicidal evaluation, ORYSAT; type: in vivo, Oryza sativa, (L.)
Summary of the method: as §1

ZEAMX Corn, Field [12] = assay: Postemergence herbicidal evaluation, ZEAMX; type: in vivo, Zea mays, L. (Sammel-Bezeichnung)
Summary of the method: as §1

ABUTH Velvetleaf [13] = assay: Preemergence herbicidal evaluation, ABUTH; type: in vivo, Abutilon theophrasti, Medic.; conditions: for ABUTH herbicidal rating: preemergence
Summary of the method: (§2)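 Seeds mixed with potting soil were planted on about one inch of soil in cups, then sprayed with the test compound in aqueous acetone at roughly 0.013 to 0.800 kg per hectare. Plants were kept under standard greenhouse care and injury was rated four to five weeks after treatment.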

AMBEL Ragweed, Common [14] = assay: Preemergence herbicidal evaluation, AMBEL; type: in vivo, Ambrosia artemisifolia, L.; conditions: for AMBEL herbicidal rating: preemergence; for Preemergence herbicidal rating, AMBEL: rated four to five weeks after treatment
Summary of the method: as §2

CASOB Sicklepod [15] = assay: Preemergence herbicidal evaluation, CASOB; type: in vivo, Cassia obtusifolia, L.; conditions: for CASOB herbicidal rating: preemergence; for Preemergence herbicidal rating, CASOB: rated four to five weeks after treatment
Summary of the method: as §2

[16] = system: CHEAL Lambsquarters, Common; assay: Preemergence herbicidal evaluation, CHEAL; type: in vivo, Chenopodium album, L.; conditions: for CHEAL herbicidal rating: preemergence; for Preemergence herbicidal rating, CHEAL: rated four to five weeks after treatment
Summary of the method: as §2

ECHOG Barnyardgrass [17] = assay: Preemergence herbicidal evaluation, ECHOG; type: in vivo, Echinochloa crus-galli, (L.) Beau; conditions: for ECHCG herbicidal rating: preemergence; for Preemergence herbicidal rating, ECHCG: rated four to five weeks after treatment
Summary of the method: as §2

GALAP Galium [18] = assay: Preemergence herbicidal evaluation, GALAP; type: in vivo, Galium aparine; conditions: for GALAP herbicidal rating: preemergence; for Preemergence herbicidal rating, GALAP: rated four to five weeks after treatment
Summary of the method: as §2

[19] = system: IPOHE Morningglory, Ivyleaf; assay: Preemergence herbicidal evaluation, IPOHE; type: in vivo, Ipomoea hederacea, (L.) Jacq.; conditions: for IPOHE herbicidal rating: preemergence; for Preemergence herbicidal rating, IPOHE: rated four to five weeks after treatment
Summary of the method: as §2

SETVI Foxtail, Green [20] = assay: Preemergence herbicidal evaluation, SETVI; type: in vivo, Setaria viridis, (L.) Beau; conditions: for SETVI herbicidal rating: preemergence; for Preemergence herbicidal rating, SETVI: rated four to five weeks after treatment
Summary of the method: as §2

GLXMAW Soybean, Williams [21] = assay: Preemergence herbicidal evaluation, GLXMAW; type: in vivo, Glycine max, (L.) Merr. cv Williams; conditions: for GLXMAW herbicidal rating: preemergence; for Preemergence herbicidal rating, GLXMAW: rated four to five weeks after treatment
Summary of the method: as §2

[22] = system: TRZAWR Wheat, Winter, cv Riband; assay: Preemergence herbicidal evaluation, TRZAWR; type: in vivo, Triticum aestivum; conditions: for TRZAWR herbicidal rating: preemergence; for Preemergence herbicidal rating, TRZAWR: rated four to five weeks after treatment
Summary of the method: as §2

ORYSAT Rice, Tebonnet [23] = assay: Preemergence herbicidal evaluation, ORYSAT; type: in vivo, Oryza sativa, (L.); conditions: for ORYSAT herbicidal rating: preemergence; for Preemergence herbicidal rating, ORYSAT: rated four to five weeks after treatment
Summary of the method: as §2

ZEAMX Corn, Field [24] = assay: Preemergence herbicidal evaluation, ZEAMX; type: in vivo, Zea mays, L. (Sammel-Bezeichnung); conditions: for ZEAMX herbicidal rating: preemergence; for Preemergence herbicidal rating, ZEAMX: rated four to five weeks after treatment
Summary of the method: as §2

[25] = 0.016 kg/ha, postemergence spray, rated about two-three weeks after treatment
[26] = 0.032 kg/ha, postemergence spray, rated about two-three weeks after treatment
[27] = 0.062 kg/ha, postemergence spray, rated about two-three weeks after treatment
[28] = rate 0.008 kg/ha, rated two - three weeks after treatment

## Cn1c(C(F)(F)F)cc(=O)n(-c2cc3c(cc2F)nnn3-c2ccc(OCC(=O)O)cc2)c1=O [Example 44]
ABUTH Velvetleaf [1]; [25]
  Postemergence herbicidal rating ABUTH: 9.0
ABUTH Velvetleaf [1]; [26]
  Postemergence herbicidal rating ABUTH: 7.0
ABUTH Velvetleaf [1]; [27]
  Postemergence herbicidal rating ABUTH: 9.0
ABUTH Velvetleaf [1]; [28]
  Postemergence herbicidal rating ABUTH: 9.0
AMBEL Ragweed, Common [2]; [25]
  Postemergence herbicidal rating AMBEL: 3.0
AMBEL Ragweed, Common [2]; [26]
  Postemergence herbicidal rating AMBEL: 6.0
AMBEL Ragweed, Common [2]; [27]
  Postemergence herbicidal rating AMBEL: 7.0
AMBEL Ragweed, Common [2]; [28]
  Postemergence herbicidal rating AMBEL: 3.0
CASOB Sicklepod [3]; [25]
  Postemergence herbicidal rating CASOB: 0.0
CASOB Sicklepod [3]; [26]
  Postemergence herbicidal rating CASOB: 1.0
CASOB Sicklepod [3]; [27]
  Postemergence herbicidal rating CASOB: 2.0
CASOB Sicklepod [3]; [28]
  Postemergence herbicidal rating CASOB: 0.0
[4]; [25]
  Postemergence herbicidal rating CHEAL: 7.0
[4]; [26]
  Postemergence herbicidal rating CHEAL: 6.0
[4]; [27]
  Postemergence herbicidal rating CHEAL: 9.0
[4]; [28]
  Postemergence herbicidal rating CHEAL: 5.0
ECHOG Barnyardgrass [5]; [25]
  Postemergence herbicidal rating ECHCG: 4.0
ECHOG Barnyardgrass [5]; [26]
  Postemergence herbicidal rating ECHCG: 6.0
ECHOG Barnyardgrass [5]; [27]
  Postemergence herbicidal rating ECHCG: 6.0
ECHOG Barnyardgrass [5]; [28]
  Postemergence herbicidal rating ECHCG: 3.0
GALAP Galium [6]; [25]
  Postemergence herbicidal rating GALAP: 0.0
GALAP Galium [6]; [26]
  Postemergence herbicidal rating GALAP: 1.0
GALAP Galium [6]; [27]
  Postemergence herbicidal rating GALAP: 2.0
GALAP Galium [6]; [28]
  Postemergence herbicidal rating GALAP: 0.0
[7]; [25]
  Postemergence herbicidal rating IPOHE: 7.0
[7]; [26]
  Postemergence herbicidal rating IPOHE: 9.0
[7]; [27]
  Postemergence herbicidal rating IPOHE: 9.0
[7]; [28]
  Postemergence herbicidal rating IPOHE: 7.0
SETVI Foxtail, Green [8]; [25]
  Postemergence herbicidal rating SETVI: 4.0
SETVI Foxtail, Green [8]; [26]
  Postemergence herbicidal rating SETVI: 7.0
SETVI Foxtail, Green [8]; [27]
  Postemergence herbicidal rating SETVI: 7.0
SETVI Foxtail, Green [8]; [28]
  Postemergence herbicidal rating SETVI: 4.0
GLXMAW Soybean, Williams [9]; [25]
  Postemergence herbicidal rating GLXMAW: 6.5
GLXMAW Soybean, Williams [9]; [26]
  Postemergence herbicidal rating GLXMAW: 6.5
GLXMAW Soybean, Williams [9]; [27]
  Postemergence herbicidal rating GLXMAW: 7.0
GLXMAW Soybean, Williams [9]; [28]
  Postemergence herbicidal rating GLXMAW: 5.0
[10]; [25]
  Postemergence herbicidal rating TRZAWR: 4.0
[10]; [26]
  Postemergence herbicidal rating TRZAWR: 3.5
[10]; [27]
  Postemergence herbicidal rating TRZAWR: 4.0
[10]; [28]
  Postemergence herbicidal rating TRZAWR: 3.0
ORYSAT Rice, Tebonnet [11]; [25]
  Postemergence herbicidal rating ORYSAT: 2.5
ORYSAT Rice, Tebonnet [11]; [26]
  Postemergence herbicidal rating ORYSAT: 2.5
ORYSAT Rice, Tebonnet [11]; [27]
  Postemergence herbicidal rating ORYSAT: 3.0
ORYSAT Rice, Tebonnet [11]; [28]
  Postemergence herbicidal rating ORYSAT: 2.5
ZEAMX Corn, Field [12]; [25]
  Postemergence herbicidal rating ZEAMX: 6.5
ZEAMX Corn, Field [12]; [26]
  Postemergence herbicidal rating ZEAMX: 6.5
ZEAMX Corn, Field [12]; [27]
  Postemergence herbicidal rating ZEAMX: 7.0
ZEAMX Corn, Field [12]; [28]
  Postemergence herbicidal rating ZEAMX: 4.5
ABUTH Velvetleaf [13]; rate 0.062 kg/ha
  ABUTH herbicidal rating: 7.0
ABUTH Velvetleaf [13]; rate 0.125 kg/ha
  ABUTH herbicidal rating: 9.0
ABUTH Velvetleaf [13]; rate 0.032 kg/ha, rated four to five weeks after treatment
  Preemergence herbicidal rating, ABUTH: 0.0
AMBEL Ragweed, Common [14]; rate 0.062 kg/ha
  AMBEL herbicidal rating: 0.0
AMBEL Ragweed, Common [14]; rate 0.125 kg/ha
  AMBEL herbicidal rating: 0.0
AMBEL Ragweed, Common [14]; rate 0.016 kg/ha
  Preemergence herbicidal rating, AMBEL: 1.0
AMBEL Ragweed, Common [14]; rate 0.032 kg/ha
  Preemergence herbicidal rating, AMBEL: 0.0
CASOB Sicklepod [15]; rate 0.062 kg/ha
  CASOB herbicidal rating: 2.0
CASOB Sicklepod [15]; rate 0.125 kg/ha
  CASOB herbicidal rating: 0.0
CASOB Sicklepod [15]; rate 0.016 kg/ha
  Preemergence herbicidal rating, CASOB: 0.0
CASOB Sicklepod [15]; rate 0.032 kg/ha
  Preemergence herbicidal rating, CASOB: 1.0
[16]; rate 0.062 kg/ha
  CHEAL herbicidal rating: 9.0
[16]; rate 0.125 kg/ha
  CHEAL herbicidal rating: 9.0
[16]; rate 0.016 kg/ha
  Preemergence herbicidal rating, CHEAL: 9.0
[16]; rate 0.032 kg/ha
  Preemergence herbicidal rating, CHEAL: 9.0
ECHOG Barnyardgrass [17]; rate 0.062 kg/ha
  ECHCG herbicidal rating: 0.0
ECHOG Barnyardgrass [17]; rate 0.125 kg/ha
  ECHCG herbicidal rating: 0.0
ECHOG Barnyardgrass [17]; rate 0.016 kg/ha
  Preemergence herbicidal rating, ECHCG: 0.0
ECHOG Barnyardgrass [17]; rate 0.032 kg/ha
  Preemergence herbicidal rating, ECHCG: 0.0
GALAP Galium [18]; rate 0.062 kg/ha
  GALAP herbicidal rating: 4.0
GALAP Galium [18]; rate 0.125 kg/ha
  GALAP herbicidal rating: 7.0
GALAP Galium [18]; rate 0.016 kg/ha
  Preemergence herbicidal rating, GALAP: 3.0
GALAP Galium [18]; rate 0.032 kg/ha
  Preemergence herbicidal rating, GALAP: 5.0
[19]; rate 0.062 kg/ha
  IPOHE herbicidal rating: 0.0
[19]; rate 0.125 kg/ha
  IPOHE herbicidal rating: 2.0
[19]; rate 0.016 kg/ha
  Preemergence herbicidal rating, IPOHE: 0.0
[19]; rate 0.032 kg/ha
  Preemergence herbicidal rating, IPOHE: 0.0
SETVI Foxtail, Green [20]; rate 0.062 kg/ha
  SETVI herbicidal rating: 3.0
SETVI Foxtail, Green [20]; rate 0.125 kg/ha
  SETVI herbicidal rating: 9.0
SETVI Foxtail, Green [20]; rate 0.016 kg/ha
  Preemergence herbicidal rating, SETVI: 0.0
SETVI Foxtail, Green [20]; rate 0.032 kg/ha
  Preemergence herbicidal rating, SETVI: 0.0
GLXMAW Soybean, Williams [21]; rate 0.062 kg/ha
  GLXMAW herbicidal rating: 0.0
GLXMAW Soybean, Williams [21]; rate 0.125 kg/ha
  GLXMAW herbicidal rating: 0.0
GLXMAW Soybean, Williams [21]; rate 0.016 kg/ha
  Preemergence herbicidal rating, GLXMAW: 0.0
GLXMAW Soybean, Williams [21]; rate 0.032 kg/ha
  Preemergence herbicidal rating, GLXMAW: 0.0
[22]; rate 0.062 kg/ha
  TRZAWR herbicidal rating: 1.0
[22]; rate 0.125 kg/ha
  TRZAWR herbicidal rating: 1.0
[22]; rate 0.016 kg/ha
  Preemergence herbicidal rating, TRZAWR: 0.0
[22]; rate 0.032 kg/ha
  Preemergence herbicidal rating, TRZAWR: 0.0
ORYSAT Rice, Tebonnet [23]; rate 0.062 kg/ha
  ORYSAT herbicidal rating: 5.0
ORYSAT Rice, Tebonnet [23]; rate 0.125 kg/ha
  ORYSAT herbicidal rating: 5.0
ORYSAT Rice, Tebonnet [23]; rate 0.016 kg/ha
  Preemergence herbicidal rating, ORYSAT: 0.0
ORYSAT Rice, Tebonnet [23]; rate 0.032 kg/ha
  Preemergence herbicidal rating, ORYSAT: 0.0
ZEAMX Corn, Field [24]; rate 0.062 kg/ha
  ZEAMX herbicidal rating: 1.0
ZEAMX Corn, Field [24]; rate 0.125 kg/ha
  ZEAMX herbicidal rating: 1.0
ZEAMX Corn, Field [24]; rate 0.016 kg/ha
  Preemergence herbicidal rating, ZEAMX: 0.0
ZEAMX Corn, Field [24]; rate 0.032 kg/ha
  Preemergence herbicidal rating, ZEAMX: 0.0
